Assay [1] deals with Hepatitis C virus. In words: Antiviral activity against HCV psuedoparticles infected in human Huh7 cells assessed as inhibition of virus entry at 10 uM using Bright Glo reagent after 72 hrs by Luciferase reporter gene assay. The assay is classed as functional, Hepacivirus hominis, Huh-7. Also on record: scale not given: the % may be the effect or the level left. A general note: Reporter assays use an easily measured gene product as a stand-in for the process of interest.

Assay [2] deals with Hepatitis C virus. In words: Antiviral activity against HCV psuedoparticles infected in human Huh7 cells assessed as inhibition of virus entry at 1 to 5 uM using Bright Glo reagent after 72 hrs by Luciferase reporter gene assay. The assay is classed as functional.
In assay [3] the test system is Vesicular stomatitis virus. In words: Antiviral activity against VSV psuedoparticles infected in human Huh7 cells assessed as inhibition of virus entry at 1 to 5 uM using Bright Glo reagent after 72 hrs by Luciferase reporter gene assay. The assay is classed as functional, organism-based. Particulars: Huh-7.

Activity calls are given as the source filed them. No cut-off for these calls is given here.

As to `CC1(C)[C@@H](O)CC[C@]2(C)[C@H]3C(=O)C=C4[C@@H]5C[C@@](C)(C(=O)O)CC[C@]5(C)CC[C@@]4(C)[C@]3(C)CC[C@@H]12` [ENOXOLONE], in the assay with Hepatitis C virus [1], the Activity is given as 5%.
On to `CC1(C)CC[C@]2(C(=O)O)[C@H](O)C[C@]3(C)[C@H](OC(=O)C[C@@H]4[C@@](C)(CCC(=O)O)[C@H](C(C)(C)O)CC[C@]43C)[C@@H]2C1`, for which the result in the assay on Hepatitis C virus [2] (Hepacivirus hominis, Huh-7) was Active. Further, the result in assay [3] was inactive.
Turning to `CC1(C)CC[C@]2(C(=O)O)[C@H](O)C[C@]3(C)C(=CC[C@@H]4[C@@]5(C)CC[C@H](O)C(C)(C)[C@@H]5CC[C@]43C)[C@H]2C1` [ECHINOCYSTIC ACID], in the assay on Hepatitis C virus [2], the Activity amounted to 90%.
Regarding `C[C@H]1[C@H](C)CC[C@]2(C(=O)O)CC[C@]3(C)C(=CC[C@@H]4[C@@]5(C)CC[C@H](O)C(C)(C)[C@@H]5CC[C@]43C)[C@H]12` [URSOLIC ACID], the Activity in the assay on Hepatitis C virus [1] came to 30%.
On to `CC1(C)CC[C@]2(CO)[C@H](O)C[C@@](C)([C@]3(C)CC[C@H]4C(C)(C)[C@@H](O)CC[C@]4(C)C3CCO)C(O)[C@@H]2C1` (stereo not given in full), for which the outcome in the assay on Hepatitis C virus [2] (Hepacivirus hominis, Huh-7) was Active. For the same compound, the result in assay [3] was inactive.
In the same order, the values of `COC(=O)[C@]12CCC(C)(C)C[C@H]1[C@H]1OC(=O)C[C@@H]3[C@@]4(C)CC[C@H](O)C(C)(C)[C@@H]4CC[C@@]3(C)[C@]1(C)C[C@H]2O` are “Active” and “inactive”.
In the case of `CC1(C)CC[C@]2(C(=O)O)[C@H](O)C[C@]3(C)[C@H](C(=O)OC[C@@H]4[C@@]5(C)CC[C@H](O)C(C)(C)[C@@H]5CC[C@]43C)[C@@H]2C1`, the result in the assay on Hepatitis C virus [2] (Hepacivirus hominis, Huh-7) was Active. In addition, the result in assay [3] was inactive.
As for `CC1(C)CC[C@]2(C(=O)O)[C@H](O)C[C@]3(C)[C@H](C(=O)C[C@@H]4[C@@](C)(CCC(=O)O)[C@H](C(C)(C)O)CC[C@]43C)[C@@H]2C1`, the result with Hepatitis C virus [2] (Hepacivirus hominis, Huh-7) was Active. Moreover, the result in assay [3] was inactive.
Turning to `CC1(C)CC[C@]2(C(=O)O)[C@H](O)C[C@]3(C)[C@H](C(=O)C[C@@H]4[C@@]5(C)CCC(=O)OC(C)(C)[C@@H]5CC[C@]43C)[C@@H]2C1`, the outcome in the assay with Hepatitis C virus [2] (Hepacivirus hominis, Huh-7) was Active. Besides, the outcome in assay [3] was inactive.
On to `CC1(C)CC[C@]2(C(=O)O)[C@H](O)C[C@]3(C)[C@H](OC(=O)C[C@@H]4[C@@]5(C)CCC(=O)OC(C)(C)[C@@H]5CC[C@]43C)[C@@H]2C1`, for which the result in the assay with Hepatitis C virus [2] (Hepacivirus hominis, Huh-7) was Active. Further, the result in assay [3] was inactive.
Take `COC(=O)[C@]12CCC(C)(C)C[C@H]1[C@H]1C(=O)OC[C@@H]3[C@@]4(C)CC[C@H](O)C(C)(C)[C@@H]4CC[C@@]3(C)[C@]1(C)C[C@H]2O`: in the assay with Hepatitis C virus [2] (Hepacivirus hominis, Huh-7), the result was Active. Moreover, the result in assay [3] was inactive.
Turning to `CC1(C)CC[C@]2(C(=O)O)[C@H](O)C[C@]3(C)[C@H](C(=O)OC[C@@H]4[C@@](C)(CCC(=O)O)[C@H](C(C)(C)O)CC[C@]43C)[C@@H]2C1`, in the assay on Hepatitis C virus [2] (Hepacivirus hominis, Huh-7), the outcome was Active. In assay [3], the result was inactive.
On to `CC1(C)CC[C@]2(C(=O)O)[C@H](O)C[C@]3(C)[C@H](OC(=O)C[C@@H]4[C@@]5(C)CC[C@H](O)C(C)(C)[C@@H]5CC[C@]43C)[C@@H]2C1`, for which the result with Hepatitis C virus [2] (Hepacivirus hominis, Huh-7) was Active. Besides, the result in assay [3] was inactive.
Take `C=C(C)[C@@H]1CC[C@]2(C(=O)O)CC[C@]3(C)[C@H](CC[C@@H]4[C@@]5(C)CC[C@H](O)C(C)(C)[C@@H]5CC[C@]43C)[C@@H]12` [BETULINIC ACID]: the Activity with Hepatitis C virus [1] is given as 75%.
Take `CC1(C)CC[C@]2(C(=O)O)[C@H](O)C[C@]3(C)[C@H](C(=O)C=C4[C@@]5(C)CC[C@H](O)C(C)(C)[C@@H]5CC[C@]43C)[C@@H]2C1`: the result in the assay on Hepatitis C virus [2] (Hepacivirus hominis, Huh-7) was Active. Also, the result in assay [3] was inactive.
Regarding `CC1(C)CC[C@]2(CO)[C@H](O)C[C@]3(C)[C@H](C(O)C[C@@H]4[C@@](C)(CCCO)[C@H](C(C)(C)O)CC[C@]43C)[C@@H]2C1` (stereo not given in full), the result in the assay with Hepatitis C virus [2] (Hepacivirus hominis, Huh-7) was Active. In addition, the outcome in assay [3] was inactive.
Consider `CC1(C)CC[C@]2(C(=O)O)[C@H](O)C[C@]3(C)[C@H](C(=O)OC[C@@H]4[C@@]5(C)CCC(=O)OC(C)(C)[C@@H]5CC[C@]43C)[C@@H]2C1`, for which the result in the assay with Hepatitis C virus [2] (Hepacivirus hominis, Huh-7) was Active. Moreover, the outcome in assay [3] was inactive.

(Values after ChEMBL document CHEMBL3616443, “Synthesis and biological evaluation of ring A and/or C expansion and opening echinocystic acid derivatives for anti-HCV entry inhibitors” (2015).)
